Source: the NIST ThermoML archive (doi:10.1016/j.jct.2015.03.019)
“And” between values parts separate entries of the source, which are not always exact repeats. Equal values may be shown once. ± gives the expanded uncertainty stated by the source.

Assay: molar heat capacity at constant pressure
Conditions: 101.33 kPa, Crystal, Small (less than 1 g) adiabatic calorimetry

CC(C)(C)c1ccc(Oc2ccccc2)cc1 [4-tert-butylphenyl phenyl ether]
Conditions | molar heat capacity at constant pressure
5 K | 0.671 ± 0.044 J/K/mol
7.93 K | 2.627 ± 0.12 J/K/mol
8.1 K | 2.719 ± 0.12 J/K/mol
8.28 K | 3.035 ± 0.14 J/K/mol
8.43 K | 3.06 ± 0.14 J/K/mol
8.59 K | 3.268 ± 0.15 J/K/mol
8.75 K | 3.459 ± 0.16 J/K/mol
8.9 K | 3.675 ± 0.17 J/K/mol
9.05 K | 3.725 ± 0.17 J/K/mol
9.2 K | 3.958 ± 0.17 J/K/mol
9.49 K | 4.365 ± 0.19 J/K/mol
9.63 K | 4.573 ± 0.2 J/K/mol
9.78 K | 4.881 ± 0.22 J/K/mol
9.92 K | 5.097 ± 0.22 J/K/mol
10 K | 4.906 ± 0.17 J/K/mol
10.28 K | 5.488 ± 0.24 J/K/mol
10.56 K | 5.961 ± 0.26 J/K/mol
10.85 K | 6.419 ± 0.27 J/K/mol
11.15 K | 6.884 ± 0.3 J/K/mol
12.02 K | 8.298 ± 0.36 J/K/mol
12.32 K | 8.896 ± 0.42 J/K/mol
12.61 K | 9.395 ± 0.42 J/K/mol
12.91 K | 9.977 ± 0.42 J/K/mol
13.21 K | 10.48 ± 0.42 J/K/mol
13.51 K | 11.06 ± 0.5 J/K/mol
13.81 K | 11.64 ± 0.5 J/K/mol
14.11 K | 12.22 ± 0.5 J/K/mol
14.41 K | 12.72 ± 0.5 J/K/mol
14.71 K | 13.3 ± 0.58 J/K/mol
15 K | 13.89 ± 0.33 J/K/mol
15.02 K | 13.97 ± 0.58 J/K/mol
15.32 K | 14.55 ± 0.58 J/K/mol
15.63 K | 15.05 ± 0.67 J/K/mol
15.94 K | 15.71 ± 0.67 J/K/mol
16.25 K | 16.3 ± 0.67 J/K/mol
16.56 K | 16.96 ± 0.75 J/K/mol
16.87 K | 17.63 ± 0.75 J/K/mol
17.18 K | 18.13 ± 0.75 J/K/mol
17.49 K | 18.96 ± 0.75 J/K/mol
17.8 K | 19.54 ± 0.83 J/K/mol
18.12 K | 20.12 ± 0.83 J/K/mol
18.43 K | 20.79 ± 0.83 J/K/mol
18.74 K | 21.29 ± 0.91 J/K/mol
19.06 K | 21.95 ± 0.91 J/K/mol
19.37 K | 22.7 ± 0.91 J/K/mol
19.68 K | 23.36 ± 1 J/K/mol
20 K | 23.95 ± 1 J/K/mol and 23.95 ± 0.58 J/K/mol
20.57 K | 25.05 ± 0.42 J/K/mol
21.33 K | 26.59 ± 0.44 J/K/mol
22.1 K | 28.07 ± 0.47 J/K/mol
22.86 K | 29.59 ± 0.48 J/K/mol
23.63 K | 31.1 ± 0.51 J/K/mol
24.4 K | 32.68 ± 0.53 J/K/mol
25 K | 33.84 ± 0.75 J/K/mol
25.18 K | 34.25 ± 0.55 J/K/mol
25.95 K | 35.83 ± 0.57 J/K/mol
26.73 K | 37.02 ± 0.58 J/K/mol
27.51 K | 38.42 ± 0.6 J/K/mol
28.29 K | 39.88 ± 0.62 J/K/mol
29.07 K | 41.31 ± 0.64 J/K/mol
29.85 K | 42.77 ± 0.66 J/K/mol
30 K | 43.07 ± 0.83 J/K/mol
30.63 K | 44.28 ± 0.67 J/K/mol
31.42 K | 45.65 ± 0.68 J/K/mol
32.21 K | 47 ± 0.71 J/K/mol
33 K | 48.3 ± 0.72 J/K/mol
33.79 K | 49.62 ± 0.74 J/K/mol
34.58 K | 50.93 ± 0.76 J/K/mol
35 K | 51.38 ± 0.58 J/K/mol
35.37 K | 52 ± 0.77 J/K/mol
36.16 K | 53.14 ± 0.79 J/K/mol
36.95 K | 54.29 ± 0.81 J/K/mol
37.74 K | 55.42 ± 0.82 J/K/mol
38.53 K | 56.54 ± 0.84 J/K/mol
39.32 K | 57.57 ± 0.86 J/K/mol
40 K | 58.7 ± 0.67 J/K/mol
40.11 K | 58.69 ± 0.55 J/K/mol
40.91 K | 59.85 ± 0.56 J/K/mol
41.7 K | 61.07 ± 0.57 J/K/mol
42.49 K | 62.01 ± 0.57 J/K/mol
43.29 K | 63.2 ± 0.59 J/K/mol
44.08 K | 64.35 ± 0.6 J/K/mol
44.88 K | 65.44 ± 0.61 J/K/mol
45 K | 65.52 ± 0.42 J/K/mol
45.68 K | 66.42 ± 0.62 J/K/mol
46.48 K | 67.56 ± 0.62 J/K/mol
47.28 K | 68.56 ± 0.63 J/K/mol
48.08 K | 69.68 ± 0.64 J/K/mol
48.87 K | 70.7 ± 0.65 J/K/mol
49.67 K | 71.74 ± 0.67 J/K/mol
50 K | 72.09 ± 0.5 J/K/mol
50.47 K | 72.8 ± 0.67 J/K/mol
51.27 K | 73.72 ± 0.68 J/K/mol
52.07 K | 74.77 ± 0.69 J/K/mol
52.87 K | 75.83 ± 0.7 J/K/mol
53.67 K | 77.23 ± 0.71 J/K/mol
56.08 K | 80.21 ± 0.73 J/K/mol
56.88 K | 81.22 ± 0.74 J/K/mol
57.68 K | 82.24 ± 0.75 J/K/mol
58.49 K | 83.23 ± 0.75 J/K/mol
59.3 K | 84.31 ± 0.75 J/K/mol
60 K | 85.31 ± 0.58 J/K/mol
60.1 K | 85.31 ± 0.75 J/K/mol
60.91 K | 86.3 ± 0.75 J/K/mol
61.71 K | 87.3 ± 0.83 J/K/mol
62.51 K | 88.3 ± 0.83 J/K/mol
64.11 K | 90.88 ± 0.83 J/K/mol
64.92 K | 91.87 ± 0.83 J/K/mol
65.72 K | 92.71 ± 0.83 J/K/mol
66.52 K | 93.62 ± 0.83 J/K/mol
67.33 K | 94.45 ± 0.83 J/K/mol
68.13 K | 95.12 ± 0.83 J/K/mol
68.94 K | 96.12 ± 0.91 J/K/mol
69.74 K | 96.95 ± 0.91 J/K/mol
70 K | 97.28 ± 0.5 J/K/mol
70.74 K | 97.94 ± 0.91 J/K/mol
71.95 K | 99.19 ± 0.91 J/K/mol
73.16 K | 100.61 ± 0.91 J/K/mol
74.36 K | 101.94 ± 0.91 J/K/mol
75.56 K | 102.6 ± 0.91 J/K/mol
76.77 K | 103.6 ± 0.91 J/K/mol
77.98 K | 104.6 ± 0.91 J/K/mol
79.18 K | 105.68 ± 1 J/K/mol
80 K | 106.59 ± 0.58 J/K/mol
80.21 K | 106.67 ± 0.58 J/K/mol
80.39 K | 106.92 ± 0.58 J/K/mol
81.01 K | 107.17 ± 0.67 J/K/mol
81.6 K | 108.09 ± 0.67 J/K/mol
81.81 K | 108.17 ± 0.67 J/K/mol
82.62 K | 108.84 ± 0.67 J/K/mol
82.8 K | 109.25 ± 0.67 J/K/mol
83.42 K | 109.58 ± 0.67 J/K/mol
84.01 K | 110.25 ± 0.67 J/K/mol
85.83 K | 111.83 ± 0.67 J/K/mol
86.63 K | 112.66 ± 0.67 J/K/mol
87.43 K | 113.33 ± 0.67 J/K/mol
88.23 K | 114.16 ± 0.67 J/K/mol
89.03 K | 115.07 ± 0.67 J/K/mol
89.84 K | 115.9 ± 0.67 J/K/mol
90 K | 115.99 ± 0.58 J/K/mol
90.64 K | 116.65 ± 0.67 J/K/mol
91.44 K | 117.48 ± 0.67 J/K/mol
92.24 K | 118.23 ± 0.67 J/K/mol
93.05 K | 119.15 ± 0.67 J/K/mol
93.85 K | 119.73 ± 0.67 J/K/mol
94.65 K | 120.48 ± 0.67 J/K/mol
95.46 K | 121.14 ± 0.67 J/K/mol
96.26 K | 121.97 ± 0.67 J/K/mol
97.06 K | 122.72 ± 0.67 J/K/mol
97.87 K | 123.22 ± 0.67 J/K/mol
98.67 K | 124.05 ± 0.67 J/K/mol
99.47 K | 125.13 ± 0.75 J/K/mol
100 K | 125.71 ± 0.58 J/K/mol
100.28 K | 125.8 ± 0.75 J/K/mol
101.28 K | 127.13 ± 0.75 J/K/mol
102.48 K | 128.13 ± 0.75 J/K/mol
103.69 K | 129.21 ± 0.75 J/K/mol
104.89 K | 130.45 ± 0.75 J/K/mol
106.1 K | 131.45 ± 0.75 J/K/mol
107.32 K | 132.78 ± 0.75 J/K/mol
108.53 K | 133.86 ± 0.75 J/K/mol
109.74 K | 134.86 ± 0.75 J/K/mol
110 K | 135.19 ± 0.67 J/K/mol
110.96 K | 136.11 ± 0.75 J/K/mol
112.17 K | 137.19 ± 0.75 J/K/mol
113.39 K | 138.27 ± 0.75 J/K/mol
114.61 K | 139.43 ± 0.75 J/K/mol
115.83 K | 140.51 ± 0.75 J/K/mol
117.05 K | 141.6 ± 0.75 J/K/mol
118.28 K | 142.59 ± 0.83 J/K/mol
119.5 K | 143.76 ± 0.83 J/K/mol
